From US9688653B2, “Ethoxyphenyl thienyl compounds and methods for the treatment of bacterial infections” (Duke University, priority 2013, dated 2017) come the findings set out here.

Series [1] concerns the target panel of 68 receptors (Homo sapiens, UniProt P08588). The conditions noted are these: Adrenergic β1, hum, 10 μM.
Series [2] deals with panel of 68 receptors (Homo sapiens, UniProt P25929). The conditions noted are these: Neuropeptide Y Y1, hum, 10 μM.
Series [3] deals with panel of 68 receptors (Homo sapiens, UniProt P03372). The settings on record: Estrogen ERα, hum, 10 μM.
Sequence of panel of 68 receptors (Homo sapiens, UniProt P03372) (P03372 whole entry): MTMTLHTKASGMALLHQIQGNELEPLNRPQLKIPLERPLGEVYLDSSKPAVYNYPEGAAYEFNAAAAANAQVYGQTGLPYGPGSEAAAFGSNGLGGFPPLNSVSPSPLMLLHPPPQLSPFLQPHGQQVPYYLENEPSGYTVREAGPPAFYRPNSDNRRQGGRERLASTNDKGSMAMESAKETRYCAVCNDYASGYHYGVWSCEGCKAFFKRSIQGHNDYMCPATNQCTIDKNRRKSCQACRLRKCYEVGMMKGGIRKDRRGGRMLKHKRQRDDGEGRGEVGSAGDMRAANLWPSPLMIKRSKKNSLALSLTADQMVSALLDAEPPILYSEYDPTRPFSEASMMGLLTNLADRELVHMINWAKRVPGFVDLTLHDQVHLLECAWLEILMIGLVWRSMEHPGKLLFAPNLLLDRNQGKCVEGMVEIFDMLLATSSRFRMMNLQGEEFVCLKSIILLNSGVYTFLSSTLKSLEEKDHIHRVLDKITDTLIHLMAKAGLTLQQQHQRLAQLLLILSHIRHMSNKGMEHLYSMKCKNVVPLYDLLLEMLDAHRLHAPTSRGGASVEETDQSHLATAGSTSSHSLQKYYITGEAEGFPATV
For a further series, the system named is capsule genes of UPEC. The series is described as follows: Capsule gene transcript level after probe treatment. Type of series: cell-based, Escherichia coli. The conditions noted are these: UPEC treated with the probe.
A short description of another series: in vitro. The settings on record: human (5637 cells, CC50), Escherichia coli (UTI89, IC50), Fold Selective (CC50/IC50). The gist of the method:
(§1)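 UTI89 cultures in LB with 0.5% DMSO were preincubated 2 hr at 37 °C with compounds (100 μM in screen), then with K1F phage a further 2 hr. Viability was read as Alamar Blue fluorescence. Phage-lysis inhibition is relative to plate bacterial controls; IC50 by 4-parameter fit locked at 0 and 100.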

Series [4] deals with E. coli K1 strain UTI89. Description: microbe, parasite or virus in culture. The settings on record: for Selectivity index (CC50/IC50): versus bladder 5637 cells. The essentials:
as §1

The test system of series [5] is E. coli K1 strain UTI89. The series is described as follows: Secondary assay 2: T7 phage-mediated lysis assay. Type of series: cell-based, Escherichia coli. The gist of the method: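 E. coli K1 UTI89 shaken 1.5 h with compound (100–0.39 μM, quadruplicate, 1% DMSO), initial OD600 taken to flag growth effects without phage. T7 phage, whose entry is blocked by K capsule, then added; OD600 lysis read after 3 h at 37 °C, greater lysis indicating less capsule.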

Structures are written as SMILES. A value given as a limit tells only on which side of the number the result lay.

Sequence of panel of 68 receptors (Homo sapiens, UniProt P08588) (P08588 whole entry): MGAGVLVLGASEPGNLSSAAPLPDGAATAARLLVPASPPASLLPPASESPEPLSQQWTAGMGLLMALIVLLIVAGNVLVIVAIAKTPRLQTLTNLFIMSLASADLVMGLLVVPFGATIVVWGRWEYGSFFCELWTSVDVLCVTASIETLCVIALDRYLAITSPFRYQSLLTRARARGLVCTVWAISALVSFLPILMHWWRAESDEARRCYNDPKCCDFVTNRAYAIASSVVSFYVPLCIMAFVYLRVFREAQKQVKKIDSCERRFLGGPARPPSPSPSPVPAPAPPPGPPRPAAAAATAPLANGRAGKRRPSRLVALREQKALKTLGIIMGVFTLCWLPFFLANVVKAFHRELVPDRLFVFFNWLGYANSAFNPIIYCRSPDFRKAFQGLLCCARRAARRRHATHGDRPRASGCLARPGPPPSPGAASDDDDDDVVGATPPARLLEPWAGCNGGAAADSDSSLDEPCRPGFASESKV
Sequence of panel of 68 receptors (Homo sapiens, UniProt P25929) (P25929 whole entry): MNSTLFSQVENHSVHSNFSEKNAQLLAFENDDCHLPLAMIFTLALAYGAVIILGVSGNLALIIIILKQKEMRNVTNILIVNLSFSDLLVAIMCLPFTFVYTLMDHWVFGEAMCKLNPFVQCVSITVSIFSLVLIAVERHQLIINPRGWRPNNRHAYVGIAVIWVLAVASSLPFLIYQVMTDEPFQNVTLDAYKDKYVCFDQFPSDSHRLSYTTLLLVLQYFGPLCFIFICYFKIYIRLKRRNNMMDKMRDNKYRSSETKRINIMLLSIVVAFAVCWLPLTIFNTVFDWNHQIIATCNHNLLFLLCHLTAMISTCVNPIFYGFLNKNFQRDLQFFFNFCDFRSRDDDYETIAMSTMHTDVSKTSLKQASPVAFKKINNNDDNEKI

On to `CCOc1ccc(-c2cc(NC(=O)c3c(F)cccc3F)c(C(=O)O)s2)cc1` [KUC107784N-02], for which the “% Inh.” value worked out at 2% on panel of 68 receptors [1], 5% on panel of 68 receptors [2] and 9% at panel of 68 receptors [3].
By inhibition is commonly meant the relative decrease from the control value, in per cent. Broadly, the IC50 is the midpoint of a concentration-inhibition curve. For the molecule `CCOc1ccc(-c2cc(NC(=O)c3c(F)cccc3F)c(C(=O)O)s2)cc1` [ML317, 3-(2,6-difluorobenzamido)-5-(4-ethoxyphenyl)thiophene-2-carboxylic acid], the “Transcript for the capsule genes from each of the two major promoters” value with capsule genes of UPEC is given as “significantly reduced transcript”. For the same molecule, the selectivity ratio in the series “in vitro” (commercial sample, SID 103147605) was determined as 10.5; in the series “in vitro” (synthesized sample, SID 126497311), 27.3. Further, the inhibition at 100 µM in the series on E. coli K1 strain UTI89 [4] (Escherichia coli, read-out: % Inhibition at 100 μM) came out at 9.12%. Besides, the IC50 in the series on E. coli K1 strain UTI89 [4] (Escherichia coli, read-out: K1 Capsule IC50, commercial sample, SID 103147605) was 4500 ± 2400 nM; in the series with E. coli K1 strain UTI89 [4] (Escherichia coli, read-out: K1 Capsule IC50, synthesized sample, SID 126497311), 1890 ± 1560 nM; with E. coli K1 strain UTI89 [4] (Escherichia coli, read-out: K1 phage IC50, first round of synthetic analogues, n = 3), 1890 nM; in the series on E. coli K1 strain UTI89 [4] (Escherichia coli, read-out: K1 phage IC50, purchased analogue series, n = 3), 4500 nM; in the series on E. coli K1 strain UTI89 [5] (Escherichia coli, commercial sample, SID 103147605, read-out: T7 phage assay IC50) it was under 390 nM; in the series on E. coli K1 strain UTI89 [5] (Escherichia coli, first round of synthetic analogues, n = 2, read-out: T7 phage IC50), under 625 nM. The IC50 is under 390 nM with E. coli K1 strain UTI89 [5] (Escherichia coli, purchased analogue series, n = 2, read-out: T7 phage IC50); under 625 nM with E. coli K1 strain UTI89 [5] (Escherichia coli, synthesized sample, SID 126497311, read-out: T7 phage assay IC50); under 390 nM in the series on E. coli K1 strain UTI89 [5] (listed as CID 23602075, read-out: T7 phage IC50). Moreover, the “Selectivity (Cyt./K1)” value was found to be 27.3 in the series with E. coli K1 strain UTI89 [4] (first round of synthetic analogues) and 10.49 in the series on E. coli K1 strain UTI89 [4] (purchased analogue series). For the same molecule, the “Selectivity index (CC50/IC50)” value with E. coli K1 strain UTI89 [4] is reported as over 10; in the series with E. coli K1 strain UTI89 [4] (listed as CID 23602075) it was 10.49.
